This is an account of results in US20260200897A1, “4-((5-(3-(4-(PYRIDIN-2-YL)CYCLOPENTYL)-1H-PYRAZOL-3-YL)AMINO)-BENZENESULFONAMIDE DERIVATIVES AND SIMILAR COMPOUNDS AS CDK INHIBITORS FOR THE TREATMENT OF CANCER” (BeOne Medicines I GmbH, priority 2023, published 2026).

pIC50: −log10 of the molar value. Bounds are passed on as bounds.

The target of one test is CDK2/Cyclin E1 (Homo sapiens, UniProt P24941). Briefly: CDK2/Cyclin E1 TR-FRET biochemical assay, 0.060 mM ATP. The conditions noted are these: 0.15 μM Rb (Ser780)-biotin substrate, 120 min reaction, Table 1. As to the method:
(§1) Compounds disclosed herein were tested for inhibition of CDK2/Cyclin E1 or CDK1/Cyclin B1 kinase in an assay based on the time-resolved fluorescence-resonance energy transfer (TR-FRET) methodology. The assay was carried out in 384-well low volume black plates in a reaction mixture containing CDK2/Cyclin E1 or CDK1/Cyclin B1, 0.060 mM ATP for CDK2/Cyclin E1 or 0.015 mM ATP for CDK1/Cyclin B1, 0.15 μM Rb (Ser780)-biotin substrate and 0-10 μM compound in buffer containing 50 mM HEPES pH7.0, 0.02% NaN3, 0.01% BSA, 0.1 mM Orthovanadate, 50 mM MgCl2, 1 mM DTT and 0.005% Tween-20. The kinase was incubated with compound for 60 minutes at room temperature and the reaction was initiated by the addition of ATP and Rb (Ser780)-biotin substrate. After reaction at room temperature for 120 minutes, an equal volume of stop/detection solution was added according to the manufacture's instruction (Cisbio Bioassays). The stop/detection solution contained Streptavidin-XL665 and Anti-pRb (Ser780) mAb-Eu Cryptate in Detection buffer (Cisbio Bioassays). Plates were incubated at room temperature for 60 minutes, and the TR-FRET signals (ex337 nm, em665 nm/620 nm) were recorded on a PHERAstar FSX plate reader (BMG Labtech). The inhibition percentage of CDK2/Cyclin E1 or CDK1/Cyclin B1 kinase activity in presence of increasing concentrations of compounds was calculated based on the ratio of fluorescence at 665 nm to that at 620 nm. The IC50 for each compound was derived from fitting the data to the four-parameter logistic equation by Dotmatics.
On the technique in general: Time-resolved FRET reads energy transfer from a long-lived donor to a nearby acceptor.

The target of the next test is CDK1/Cyclin B1 (Homo sapiens, UniProt P06493). The test is described as follows: CDK1/Cyclin B1 TR-FRET biochemical assay, 0.015 mM ATP. Particulars: 0.15 μM Rb (Ser780)-biotin substrate, 120 min reaction, Table 1. The protocol: as §1
Chain of CDK1/Cyclin B1 (P06493 whole entry): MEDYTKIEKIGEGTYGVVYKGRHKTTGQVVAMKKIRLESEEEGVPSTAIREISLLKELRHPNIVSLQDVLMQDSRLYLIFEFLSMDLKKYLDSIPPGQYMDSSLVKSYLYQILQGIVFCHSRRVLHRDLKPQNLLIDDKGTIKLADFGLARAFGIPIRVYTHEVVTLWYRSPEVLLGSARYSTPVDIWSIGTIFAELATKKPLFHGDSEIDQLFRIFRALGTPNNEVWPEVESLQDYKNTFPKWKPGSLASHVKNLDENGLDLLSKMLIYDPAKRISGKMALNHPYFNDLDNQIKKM
Chain of CDK1/Cyclin B1 (P14635 whole entry partner): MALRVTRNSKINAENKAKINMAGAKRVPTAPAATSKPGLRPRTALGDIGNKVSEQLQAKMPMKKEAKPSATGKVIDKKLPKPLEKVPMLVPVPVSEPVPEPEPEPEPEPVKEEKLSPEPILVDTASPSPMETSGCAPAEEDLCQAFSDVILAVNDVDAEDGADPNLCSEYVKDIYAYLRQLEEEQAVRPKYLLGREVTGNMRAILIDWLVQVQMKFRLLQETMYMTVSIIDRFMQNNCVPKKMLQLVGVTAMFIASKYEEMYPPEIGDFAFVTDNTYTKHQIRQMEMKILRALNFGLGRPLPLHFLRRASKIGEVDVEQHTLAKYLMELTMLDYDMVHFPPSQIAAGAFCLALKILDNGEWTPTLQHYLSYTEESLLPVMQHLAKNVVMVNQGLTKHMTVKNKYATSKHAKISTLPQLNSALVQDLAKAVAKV

With `Cn1nccc1O[C@@H]1CC[C@H](c2cc(Nc3ccc4c(c3F)CNS4(=O)=O)n[nH]2)C1` (relative stereo) [Example 63, cis-4-fluoro-5-((5-(3-((1-methyl-1H-pyrazol-5-yl)oxy)cyclopentyl)-1H-pyrazol-3-yl)amino)-2,3-dihydrobenzo[d]isothiazole 1,1-dioxide], the pIC50 (as a rule, the IC50 on a negative log10 scale, so that one unit is a factor of ten) was 7.05 on CDK2/Cyclin E1 and 5.51 on CDK1/Cyclin B1.

With `C=C(C)c1csnc1O[C@@H]1CC[C@H](c2cc(Nc3ccc4c(c3F)CNS4(=O)=O)n[nH]2)C1` (relative stereo) [Example 52, cis-4-fluoro-5-((5-(3-((4-(prop-1-en-2-yl)isothiazol-3-yl)oxy)cyclopentyl)-1H-pyrazol-3-yl)amino)-2,3-dihydrobenzo[d]isothiazole 1,1-dioxide], the values for the negative-log IC50 (pIC50) at CDK2/Cyclin E1 and against CDK1/Cyclin B1 were 8.15 and 6.92, respectively.

As for `CC(C)(C)c1cc(O[C@@H]2CC[C@H](c3cc(Nc4ccc5c(c4F)CNS5(=O)=O)n[nH]3)C2)[nH]n1` (relative stereo) [Example 71, cis-5-((5-(3-((3-(tert-butyl)-1H-pyrazol-5-yl)oxy)cyclopentyl)-1H-pyrazol-3-yl)amino)-4-fluoro-2,3-dihydrobenzo[d]isothiazole 1,1-dioxide], the results for the negative logarithm of the IC50 (pIC50) at CDK2/Cyclin E1 and at CDK1/Cyclin B1 were 6.41 and 5.11, respectively.

On to `CC(C)(C)c1n[nH]cc1OC1CCC(c2cc(Nc3ccc4c(c3F)CNS4(=O)=O)n[nH]2)C1` (single isomer, unassigned) [Example 74b, cis-5-((5-(3-((3-(tert-butyl)-1H-pyrazol-4-yl)oxy)cyclopentyl)-1H-pyrazol-3-yl)amino)-4-fluoro-2,3-dihydrobenzo[d]isothiazole 1,1-dioxide], for which the results for the pIC50 on CDK2/Cyclin E1 and against CDK1/Cyclin B1 were 7.74 and 6.17, respectively.

For the molecule `O=S1(=O)NCc2c1ccc(Nc1cc([C@H]3CC[C@@H](Oc4ccn[nH]4)C3)[nH]n1)c2F` (relative stereo) [Example 62, cis-5-((5-(3-((1H-pyrazol-5-yl)oxy)cyclopentyl)-1H-pyrazol-3-yl)amino)-4-fluoro-2,3-dihydrobenzo[d]isothiazole 1,1-dioxide], the values for the pIC50 against CDK2/Cyclin E1 and against CDK1/Cyclin B1 were 7.62 and 6.24, respectively.

With `O=c1c(C2CC2)csn1[C@H]1CC[C@@H](c2cc(Nc3ccc4c(c3F)CNS4(=O)=O)n[nH]2)C1` (relative stereo) [Example 54, cis-4-cyclopropyl-2-(3-(3-((4-fluoro-1,1-dioxido-2,3-dihydrobenzo[d]isothiazol-5-yl)amino)-1H-pyrazol-5-yl)cyclopentyl)isothiazol-3 (2H)-one], the pIC50 on CDK2/Cyclin E1 was 7.31; on CDK1/Cyclin B1, 6.38.

With `CN1C(=O)N([C@H]2CC[C@@H](c3cc(Nc4ccc5c(c4F)CNS5(=O)=O)n[nH]3)C2)C(=O)C1(C)C` (relative stereo) [Example 86, cis-3-(3-(3-((4-fluoro-1,1-dioxido-2,3-dihydrobenzo[d]isothiazol-5-yl)amino)-1H-pyrazol-5-yl)cyclopentyl)-1,5,5-trimethylimidazolidine-2,4-dione], the negative logarithm of the IC50 (pIC50) at CDK2/Cyclin E1 is 7.14; against CDK1/Cyclin B1, 5.87.

For `O=S1(=O)NCc2c1ccc(Nc1cc([C@H]3CC[C@@H](Oc4ccsn4)C3)[nH]n1)c2F` (relative stereo) [Example 50, cis-4-fluoro-5-((5-(3-(isothiazol-3-yloxy)cyclopentyl)-1H-pyrazol-3-yl)amino)-2,3-dihydrobenzo[d]isothiazole 1,1-dioxide], the results for the pIC50 against CDK2/Cyclin E1 and at CDK1/Cyclin B1 were 7.48 and 5.88, respectively.

Turning to `CC(C)(C)c1cnc(C2CCC(c3cc(Nc4ccc5c(c4F)CNS5(=O)=O)n[nH]3)C2)o1` (single isomer, unassigned) [Example 91b, cis-5-((5-(3-(5-(tert-butyl)oxazol-2-yl)cyclopentyl)-1H-pyrazol-3-yl)amino)-4-fluoro-2,3-dihydrobenzo[d]isothiazole 1,1-dioxide], the pIC50 was 7.64 at CDK2/Cyclin E1 and 5.59 against CDK1/Cyclin B1.

For the molecule `O=S1(=O)NCc2c1ccc(Nc1cc([C@H]3CC[C@@H](Oc4cnccc4C4CC4)C3)[nH]n1)c2F` (relative stereo) [Example 41, cis-5-((5-(3-((4-cyclopropylpyridin-3-yl)oxy)cyclopentyl)-1H-pyrazol-3-yl)amino)-4-fluoro-2,3-dihydrobenzo[d]isothiazole 1,1-dioxide], the pIC50 was 7.48 at CDK2/Cyclin E1 and 6.32 against CDK1/Cyclin B1.

In the case of `O=c1c(-c2ccccc2)ccnn1[C@H]1CC[C@@H](c2cc(Nc3ccc4c(c3F)CNS4(=O)=O)n[nH]2)C1` (relative stereo) [Example 30, cis-2-(3-(3-((4-fluoro-1,1-dioxido-2,3-dihydrobenzo[d]isothiazol-5-yl)amino)-1H-pyrazol-5-yl)cyclopentyl)-4-phenylpyridazin-3 (2H)-one], the negative-log IC50 (pIC50) on CDK2/Cyclin E1 is 5.68; at CDK1/Cyclin B1 it was < 5.00.

With `O=S1(=O)NCc2c1ccc(Nc1cc([C@H]3CC[C@@H](Oc4ccnn4-c4ccccc4)C3)[nH]n1)c2F` (relative stereo) [Example 70, (cis)-4-fluoro-5-((5-(3-((1-phenyl-1H-pyrazol-5-yl)oxy)cyclopentyl)-1H-pyrazol-3-yl)amino)-2,3-dihydrobenzo[d]isothiazole 1,1-dioxide], the pIC50 against CDK2/Cyclin E1 and at CDK1/Cyclin B1 was < 5.00 throughout.

In the case of `O=c1c(C2CC2)ccnn1[C@H]1CC[C@@H](c2cc(Nc3ccc4c(c3F)CNS4(=O)=O)n[nH]2)C1` (relative stereo) [Example 28, cis-4-cyclopropyl-2-(3-(3-((4-fluoro-1,1-dioxido-2,3-dihydrobenzo[d]isothiazol-5-yl)amino)-1H-pyrazol-5-yl)cyclopentyl)pyridazin-3 (2H)-one], the negative logarithm of the IC50 (pIC50) against CDK2/Cyclin E1 was 6.89; against CDK1/Cyclin B1 it was 5.91.

On to `CC(C)c1n[nH]cc1O[C@@H]1CC[C@H](c2cc(Nc3ccc4c(c3F)CNS4(=O)=O)n[nH]2)C1` (relative stereo) [Example 73, cis-4-fluoro-5-((5-(3-((3-isopropyl-1H-pyrazol-4-yl)oxy)cyclopentyl)-1H-pyrazol-3-yl)amino)-2,3-dihydrobenzo[d]isothiazole 1,1-dioxide], for which the pIC50 on CDK2/Cyclin E1 was 7.92; against CDK1/Cyclin B1 it was 6.35.

Take `O=S1(=O)NCc2c1ccc(Nc1cc([C@H]3CC[C@@H](Oc4cccnc4)C3)[nH]n1)c2F` (relative stereo) [Example 39, cis-4-fluoro-5-((5-(3-(pyridin-3-yloxy)cyclopentyl)-1H-pyrazol-3-yl)amino)-2,3-dihydrobenzo[d]isothiazole 1,1-dioxide]: the negative-log IC50 (pIC50) on CDK2/Cyclin E1 was 7.26; against CDK1/Cyclin B1, 5.63.

Consider `CCc1cnc(C2CCC(c3cc(Nc4ccc5c(c4)CS(=O)(=O)N5)n[nH]3)C2)o1` (stereo not drawn) [Example 133, 5-((5-(3-(5-ethyloxazol-2-yl)cyclopentyl)-1H-pyrazol-3-yl)amino)-1,3-dihydrobenzo[c]isothiazole 2,2-dioxide], for which the negative-log IC50 (pIC50) was 8.21 against CDK2/Cyclin E1 and 7.09 on CDK1/Cyclin B1.

Turning to `CC(C)N1CC(=O)N([C@H]2CC[C@@H](c3cc(Nc4ccc5c(c4F)CNS5(=O)=O)n[nH]3)C2)C1=O` (relative stereo) [Example 82, cis-3-(3-(3-((4-fluoro-1,1-dioxido-2,3-dihydrobenzo[d]isothiazol-5-yl)amino)-1H-pyrazol-5-yl)cyclopentyl)-1-isopropylimidazolidine-2,4-dione], the negative logarithm of the IC50 (pIC50) on CDK2/Cyclin E1 was 6.22; at CDK1/Cyclin B1, < 5.00.

`Cc1n[nH]cc1O[C@@H]1CC[C@H](c2cc(Nc3ccc4c(c3F)CNS4(=O)=O)n[nH]2)C1` (relative stereo) [Example 79, cis-4-fluoro-5-((5-(3-((3-methyl-1H-pyrazol-4-yl)oxy)cyclopentyl)-1H-pyrazol-3-yl)amino)-2,3-dihydrobenzo[d]isothiazole 1,1-dioxide]: the results for the pIC50 against CDK2/Cyclin E1 and at CDK1/Cyclin B1 were 8.00 and 6.31, respectively.

Turning to `O=c1c2ccncc2cnn1[C@H]1CC[C@@H](c2cc(Nc3ccc4c(c3F)CNS4(=O)=O)n[nH]2)C1` (relative stereo) [Example 34, cis-2-(3-(3-((4-fluoro-1,1-dioxido-2,3-dihydrobenzo[d]isothiazol-5-yl)amino)-1H-pyrazol-5-yl)cyclopentyl)pyrido[3,4-d]pyridazin-1 (2H)-one], the negative logarithm of the IC50 (pIC50) is 7.20 against CDK2/Cyclin E1 and 5.81 on CDK1/Cyclin B1.

Turning to `Cc1cc(O[C@@H]2CC[C@H](c3cc(Nc4ccc5c(c4F)CNS5(=O)=O)n[nH]3)C2)[nH]n1` (relative stereo) [Example 65, cis-4-fluoro-5-((5-(3-((3-methyl-1H-pyrazol-5-yl)oxy)cyclopentyl)-1H-pyrazol-3-yl)amino)-2,3-dihydrobenzo[d]isothiazole 1,1-dioxide], the pIC50 against CDK2/Cyclin E1 is 7.15; at CDK1/Cyclin B1, 5.87.

With `CCc1cnc(C2CCC(c3cc(Nc4ccc5c(c4F)CS(=O)(=O)N5)n[nH]3)C2)o1` (stereo not drawn) [Example 144, 5-((5-(3-(5-ethyloxazol-2-yl)cyclopentyl)-1H-pyrazol-3-yl)amino)-4-fluoro-1,3-dihydrobenzo[c]isothiazole 2,2-dioxide], the pIC50 against CDK2/Cyclin E1 is 7.80; against CDK1/Cyclin B1 it was 6.48.
